Values of other authors in patent US12478593B2, “Formulations for hair growth” (JENIVISION INC., priority 2016, dated 2025).

Legend:
eyelashes = conditions: humans
[1] = system: eyelash hair follicle growth cycle; conditions: mouse eyelash model
[2] = Xalatan

stability in aqueous solution (de-esterification) [2]	SMILES	eyelash growth (eyelashes)	effect on anagen growth phase of eyelashes [1]
–	CCNC(=O)CCC/C=C\C[C@@H]1[C@@H](/C=C/[C@@H](O)CCc2ccccc2)[C@H](O)C[C@@H]1O [bimatoprost]	produces eyelash growth	increased entry into anagen and extension of the anagen growth phase
facile hydrolysis	CC(C)OC(=O)CCC/C=C\C[C@@H]1[C@@H](CC[C@@H](O)CCc2ccccc2)[C@H](O)C[C@@H]1O [latanoprost]	–	–
